Data on ten molecules can be found in US8383639B2, “HIV integrase inhibitors” (priority 2009, dated 2013).

Broadly, the EC50 is the concentration at which the effect is half-maximal.

The subject of this assay is recombinant NL-Rluc virus. The experiment in a line: Inhibition of HIV replication (NL-RLuc pseudotype virus, luciferase). The class given is cell-based. Conditions: Human immunodeficiency virus 1, read-out: Activity (EC50).
As for `CC1(C)OCCn2c1nc(-c1ncn(Cc3ccc(F)cc3)n1)c(O)c2=O` [Example 5, 2-(1-(4-Fluorobenzyl)-1H-1,2,4-triazol-3-yl)-3-hydroxy-9,9-dimethyl-6,7-dihydropyrimido[2,1-c][1,4]oxazin-4(9H)-one], the EC50 worked out at 7 nM. With `CC1(C)OCCn2c1nc(-c1nnc(Cc3ccc(F)cc3)[nH]1)c(O)c2=O` [Example 4, 2-(5-(4-Fluorobenzyl)-4H-1,2,4-triazol-3-yl)-3-hydroxy-9,9-dimethyl-6,7-dihydropyrimido[2,1-c][1,4]oxazin-4(9H)-one] the figure was 51 nM; with `Cn1c(Cc2ccc(F)cc2)nnc1-c1nc2n(c(=O)c1O)CCOC2(C)C` [Example 6, 2-(5-(4-Fluorobenzyl)-4-methyl-4H-1,2,4-triazol-3-yl)-3-hydroxy-9,9-dimethyl-6,7-dihydropyrimido[2,1-c][1,4]oxazin-4(9H)-one], 141 nM. As to `CC1(C)OCCn2c1nc(-c1ncc(Cc3ccc(F)cc3)s1)c(O)c2=O` [Example 11, 2-(5-(4-Fluorobenzyl)thiazol-2-yl)-3-hydroxy-9,9-dimethyl-6,7-dihydropyrimido[2,1-c][1,4]oxazin-4(9H)-one], the EC50 was determined as 14 nM. With `CCOc1nc(-c2nc(Cc3ccc(F)cc3)no2)c(O)c(=O)n1C` [Example 7, 2-Ethoxy-6-(3-(4-fluorobenzyl)-1,2,4-oxadiazol-5-yl)-5-hydroxy-3-methylpyrimidin-4(3H)-one] the figure was 31000 nM. With `CC1(C)OCCn2c1nc(-c1cn(Cc3ccc(F)cc3)cn1)c(O)c2=O` [Example 3, 2-(1-(4-Fluorobenzyl)-1H-imidazol-4-yl)-3-hydroxy-9,9-dimethyl-6,7-dihydropyrimido[2,1-c][1,4]oxazin-4(9H)-one] the figure was 5 nM. With `Cn1c(C2CCCC2)nc(-c2nc(Cc3ccc(F)cc3)no2)c(O)c1=O` [Example 9, 2-Cyclopentyl-6-(3-(4-fluorobenzyl)-1,2,4-oxadiazol-5-yl)-5-hydroxy-3-methylpyrimidin-4(3H)-one] the figure was 22000 nM; with `CC1(C)OCCn2c1nc(-c1nnc(Cc3ccc(F)cc3)o1)c(O)c2=O` [Example 12, 2-(5-(4-Fluorobenzyl)-1,3,4-oxadiazol-2-yl)-3-hydroxy-9,9-dimethyl-6,7-dihydropyrimido[2,1-c][1,4]oxazin-4(9H)-one], 8 nM. For `Cn1c(Cc2ccc(F)cc2)cnc1-c1nc2n(c(=O)c1O)CCOC2(C)C` [Example 2, 2-(5-(4-Fluorobenzyl)-1-methyl-1H-imidazol-2-yl)-3-hydroxy-9,9-dimethyl-6,7-dihydropyrimido[2,1-c][1,4]oxazin-4(9H)-one], the EC50 was determined as 10 nM. In the case of `CC1(C)OCCn2c1nc(-c1ncc(Cc3ccc(F)cc3)[nH]1)c(O)c2=O` [Example 1, 2-(5-(4-Fluorobenzyl)-1H-imidazol-2-yl)-3-hydroxy-9,9-dimethyl-6,7-dihydropyrimido[2,1-c][1,4]oxazin-4(9H)-one], the EC50 amounted to 7 nM.
